# B1: SHLpLOX: position 9-product specific lipoxygenase derived from Lemna paucicostata SH strain (SEQ ID NO: 3), expressed in Escherichia coli (protein, listed as Lemna paucicostata)
# chain: MAGFLQKVTDNLLHKAAKISGTVVLVKSNVVGFNDFADSFLDGLHELLGSGITFQLVSATVGDPKNGNKGKLGKPALLEKWITTGTFLAAGDSGFKVNFEWDEQLGVPGAVIVKNNHHGEFFLKSLTLDGAPGPRSRIHFDCNSWVYPYSTYNYDRVFFANDTYLPGEMPEPLKAYRAAELVNLRGDGVTRELKEGDRIYAYDLYNDLGDPDSGKELARPILGGSEEYPYPRRARTGRKLTKTDPKSEQRLPLVFSLNVYVPRDERFGHLKMSDFLAYSLKALAQGLVPALDAATDITPFEFDTFQDVLNLYEGGINLPTTPALENFKKQIPFPLVKELFRSDGENLFRLPTPSVIKADKFAWRTDEEFGREMLAGVNPVCIRLLKKFPPVSSLDPSIYRNQNSTMIADQLEKNMNGLSVEEALKQKKLFILDHHDSLMPYLERINTFNKIYASRTVLLLQDDGTLKPLAIELSLPVKGEKGAVSKVYTPAEHGVEGAVWQLAKAYVAVNDSGVHQLISHWLNTHATIEPFSIALNRQLSVVHPIYKLLHPHFRDTMNINAFARQILINAGGILEMTVFPGKYAMEMSSVVYKGWKLTDQALPVDLLNRGVAEKDPSSGELRLLIEDYPYAVDGLDVWNAIEEWVKEYCAIYYPSDKTLQDDTEVQAWWKEVREVGHGDKKDETWWPAMETVAELTQTCSTIIWVASALHAAVNFAQYPYAGYLPNRPTISRRFMPEPGTPEYEELETDPDRAFLKTITSQLQTLIGVSLIEILSRHSSDEIYLGQRVSAEWTSDAKALAAFKAFGEKLITIENKIIEMNVDSSLKNRNGPVKVPYTFLYPNTTDYTRVGGLTGRGIPNSISI
# B2: Arabidopsis thaliana allene oxide synthase AtAOS (Arabidopsis thaliana) (protein)
# chain: SGSETPDLTVATRTGSKDLPIRNIPGNYGLPIVGPIKDRWDYFYDQGAEEFFKSRIRKYNSTVYRVNMPPGAFIAENPQVVALLDGKSFPVLFDVDKVEKKDLFTGTYMPSTELTGGYRILSYLDPSEPKHEKLKNLLFFLLKSSRNRIFPEFQATYSELFDSLEKELSLKGKADFGGSSDGTAFNFLARAFYGTNPADTKLKADAPGLITKWVLFNLHPLLSIGLPRVIEEPLIHTFSLPPALVKSDYQRLYEFFLESAGEILVEADKLGISREEATHNLLFATCFNTWGGMKILFPNMVKRIGRAGHQVHNRLAEEIRSVIKSNGGELTMGAIEKMELTKSVVYECLRFEPPVTAQYGRAKKDLVIESHDAAFKVKAGEMLYGYQPLATRDPKIFDRADEFVPERFVGEEGEKLLRHVLWSNGPETETPTVGNKQCAGKDFVVLVARLFVIEIFRRYDSFDIEVGTSPLGSSVNFSSLRKASF
# B3: SHLpAOS: allene oxide synthase derived from Lemna paucicostata SH strain (SEQ ID NO: 4), expressed in Escherichia coli; printed as LpLOX-SH in Table 2 (protein, listed as Lemna paucicostata)
# chain: MSVSQSDDKAALVPQKTIPGSYGIPFITPLKDRLDFFSNEYQFFQSRVESYGSTIVRLNAPPGPFMAKNPQVIAILDGKSFPVLFDTSKVEKKNIFTGTYMPSTALTGGYRVCAYLDPSEPNHTKIKQLLLNILFNRKDHVIPEFHRAYEKLFDDMDAEIAKSGKFVFNDHNDGAAFEFLGRLFFGVSPSETELGAGGVKDANLWLFSQLCPLMTLGFLPKLLEDLLLHTFPLPPFLFKGKYQAIYKYISSVATDALTMAENLGLSREEAAHNLLFAVCFNSLGGVKVLFPGILRYIAQAGKNLQASLVSEVRSAVSSTGGELTIEALEKMPLTKSVVYESLRLDPPVKYQYGVVKKDMVIESHDRSYEVKAGETLFGYQPFATRDKKIFGPDADNFVAERFIGEEGAKVLRFVVWSNGPETTDPTPVDKQCPGKNLVVLISRLLVAEFFLRYDFFDAEIGAVPLAVKTTITSLTKATTR
# How the values were obtained:
# [1] = tested on: Lemna paucicostata SH strain allene oxide synthase SHLpAOS, SEQ ID NO: 4; assay: kinetic analysis of SHLpAOS with 9-HPOT (A234 decrease, Hanes-Woolf plot); format: biochemical
# Description: (§1) SHLpAOS obtained from Lemna paucicostata SH strain was subjected to kinetic analysis. […] The substrate 9-HPOT was tested at the substrate concentration of 5-53 μM. The substrate 9-HPOT was added as an EtOH solution, and the final concentration of EtOH was adjusted to 1%. 100 μl of the reaction mixture was added into a cuvette, and a decrease in absorbance at 234 nm was scanned over time for 1 minute at an interval of 2 seconds using the SmartSpec Plus Spectrophotometer (Bio-Rad). From the A234 determined, the amount of the reaction product was calculated (e=25,000). […] It is believed that compared to AtAOS, SHLpAOS is a very useful AOS in the practical production of KODA.
# [2] = tested on: Lemna paucicostata SH strain position 9-product specific lipoxygenase SHLpLOX (LpLOX-SH), SEQ ID NO: 3; settings: 40 mM phosphate buffer (pH 6.0), 0.1% Tween 80, 25° C; substrate 10-100 μM
# Description: The sequence of SHLpLOSX obtained was introduced into a vector (pET23d, Novagen) for protein expression, and then transformed into Escherichia coli (BL21(DE3), Novagen), so as to allow the expression of SHLpLOX protein. Using this SHLpLOX protein, the activity test in KODA production was carried out. […] Using a reaction mixture comprising 40 mM phosphate buffer (pH 6.0) and 0.1% Tween 80, the analysis was carried out at a temperature of 25° C. […] The amount of the reaction product was calculated from the […] determined (e=25,000). Kinetic parameters were determined using the Hanes-Woolf plot ([S]/v versus [S] plot).
# [3] = biological target: rice germ position 9-specific lipoxygenase r9-LOX1 (Oryza sativa, UniProt Q76I22); settings: 40 mM phosphate buffer (pH 6.0), 0.1% Tween 80, 25° C; substrate 10-100 μM
# rice germ position 9-specific lipoxygenase r9-LOX1, sequence (Q76I22 whole entry): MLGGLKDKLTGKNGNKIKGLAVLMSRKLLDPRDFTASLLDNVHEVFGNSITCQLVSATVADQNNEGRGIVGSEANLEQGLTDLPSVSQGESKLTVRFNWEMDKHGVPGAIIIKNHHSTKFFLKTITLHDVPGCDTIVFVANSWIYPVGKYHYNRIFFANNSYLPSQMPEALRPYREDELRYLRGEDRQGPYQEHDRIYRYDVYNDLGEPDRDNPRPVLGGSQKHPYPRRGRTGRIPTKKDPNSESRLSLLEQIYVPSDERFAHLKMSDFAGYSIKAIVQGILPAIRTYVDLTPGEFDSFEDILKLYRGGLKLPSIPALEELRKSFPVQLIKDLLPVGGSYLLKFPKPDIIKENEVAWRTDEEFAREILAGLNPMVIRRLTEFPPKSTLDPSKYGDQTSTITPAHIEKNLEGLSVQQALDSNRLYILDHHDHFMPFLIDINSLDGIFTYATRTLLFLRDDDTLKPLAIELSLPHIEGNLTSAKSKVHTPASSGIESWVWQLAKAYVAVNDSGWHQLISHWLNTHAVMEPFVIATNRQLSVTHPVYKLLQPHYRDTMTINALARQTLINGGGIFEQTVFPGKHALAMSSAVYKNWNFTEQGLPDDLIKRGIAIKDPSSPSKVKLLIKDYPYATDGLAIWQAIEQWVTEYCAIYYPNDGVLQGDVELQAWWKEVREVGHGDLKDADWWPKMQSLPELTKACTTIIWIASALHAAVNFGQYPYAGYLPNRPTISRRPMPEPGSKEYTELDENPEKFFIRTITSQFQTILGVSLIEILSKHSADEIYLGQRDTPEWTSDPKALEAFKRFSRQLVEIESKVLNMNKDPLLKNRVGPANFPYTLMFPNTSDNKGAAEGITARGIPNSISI
# Description: Using a reaction mixture comprising 40 mM phosphate buffer (pH 6.0) and 0.1% Tween 80, the analysis was carried out at a temperature of 25° C. […] The amount of the reaction product was calculated from the [MUT] determined (e=25,000). Kinetic parameters were determined using the Hanes-Woolf plot ([S]/v versus [S] plot).
# [4] = Activity test in KODA production: HPLC of linolenic acid hydroperoxide formed by LOX; format: biochemical; settings: 5 mM linolenic acid solution, pH 7, room temperature, 30 minutes; FIG. 4
# Description: HPLC analysis was carried out with a column: Capcell pak C-18 UG120 (4.6×250 mm, Shiseido), by using column temperature: 40° C., mobile phase: 50% acetonitrile solution (0.02% TFA), flow rate: 1 ml/min, detection wavelength: 210 nm.
# [5] = Kinetic analysis of 9-LOX, absorbance at 234 nm, Hanes-Woolf plot; format: biochemical; settings: SHLpLOX versus r9-LOX1
# Description: The substrate α-linolenic acid was tested at the substrate concentration of 10-100 μM. 100 μl of the reaction mixture was added into a cuvette, and absorbance at 234 nm was scanned over time for 10 minutes at an interval of 15 seconds using the SmartSpec Plus Spectrophotometer (Bio-Rad).
# [6] = substrate: CC/C=C\C/C=C\C=C\[C@H](CCCCCCCC(=O)O)OO; assay: kinetic analysis of AtAOS with 9-HPOT (A234 decrease, Hanes-Woolf plot); format: biochemical, Arabidopsis thaliana; settings: other: 40 mM phosphate buffer (pH 7.5), 1% EtOH, 25° C, substrate 5-53 μM
# Description: (§2) To 20 μl of this 9-HPOT reaction mixture, 0.32 ng of the SHLpAOS protein or A. thaliana-derived AOS (AtAOS) protein was added and reacted at room temperature for 10 minutes. After the reaction was over, the reaction was terminated by a heat treatment at 50° C. for 3 minutes. 10 μl of this solution was analyzed by HPLC. HPLC analysis was carried out with a column: Capcell pak C-18 UG120 (4.6×250 mm), and using mobile phase: 50% acetonitrile solution (0.02% TFA), flow rate: 1 ml/min, detection wavelength: 210 nm.
# as §1
# [7] = Activity test in KODA production: AOS reacted with 9-HPOT reaction mixture, HPLC; format: biochemical; settings: 0.32 ng protein, 20 μl 9-HPOT reaction mixture, room temperature, 10 minutes; FIG. 5
# Description: as §2
# [8] = Kinetic analysis of AOS, decrease in absorbance at 234 nm, Hanes-Woolf plot; format: biochemical; settings: SHLpAOS versus AtAOS
# Description: as §1
# [9] = 40 mM phosphate buffer (pH 7.5), 1% EtOH, 25° C, substrate 5-53 μM
# [10] = higher in SHLpAOS than in AtAOS
molecule,measurement,setting,value
"CC/C=C\C/C=C\C=C\[C@H](CCCCCCCC(=O)O)OO [9-HPOT, 9-hydroperoxylinolenic acid]",Km,[1]; [9],7.1 ± 1.9 µM
same,Vmax,[1]; [9],4.7 ± 0.3 µmol/s
same,kcat,[1]; [9],709.2 ± 44.3 s⁻¹
same,"Kcat, SHLpAOS relative to AtAOS",[1]; [10],about 2.8 fold
same,"Vmax, SHLpAOS relative to AtAOS",[1]; [10],about 2.8 fold
"CC/C=C\C/C=C\C/C=C\CCCCCCCC(=O)O [α-linolenic acid, cis-9,12,15-octadecatrienoic acid]",Km,[2],19.2 ± 4.1 µM
same,Vmax,[2],3.0 ± 0.1 µmol/min
same,kcat,[2],12.8 ± 0.538 s⁻¹
same,Km,[3],22.9 ± 1.6 µM
same,Vmax,[3],2.8 ± 0.6 µmol/min
same,kcat,[3],10.24 ± 2.077 s⁻¹
B1,LOX activity (linolenic acid hydroperoxide formed) compared with r9-LOX1,[4],much higher activity than r9-LOX1
same,kcat/Km value relative to r9-LOX1,[5],about 1.6 fold
B2,Km,[6],36.3 ± 1.3 µM
same,Vmax,[6],102 µmol/min
same,kcat,[6],256 ± 4.8 s⁻¹
same,kcat/Km,[6],7e+06 ± 3.8e+06 M⁻¹ s⁻¹
B3,AOS activity relative to AtAOS protein,[7],~7 fold
same,affinity for 9-HPOT (Km) relative to AtAOS,[8],about 5 fold
same,kcat/Km value relative to AtAOS,[8],about 14 fold
